How the values were obtained:
[1] = system: LS180 (human colon cancer cell); experiment: Uptake experiment in tumor cells (LS180); type: cell-based; settings: for uptake, percent dose converted to 100,000 cells: 0.5 μCi, mean ± S.D.
Experimental: (§1) (i) LS180 (Human Colon Cancer Cell), SHIN-III (Human Ovary Cancer Cell) and U87MG (Glioma)
(§2) A commercially available medium, RPMI1640 (Nissui, 5.1 g), was dissolved in extra pure water (500 ml), autoclaved, and added with L-glutamine (0.15 g), Meylon (7% aqueous sodium hydrogencarbonate, a pharmaceutical preparation for injection, 14 ml) and FBS (55 ml) in a clean bench to prepare a medium. Cells were cultured in this medium.
(§3) Cells cryopreserved in a medium containing 10% DMSO were thawed, transferred to a 15-ml Falcon tube, and added with PBS to a volume of 5 ml. The mixture was centrifuged at 1300 rpm for 5 minutes. The supernatant was removed by suction, and the precipitates were suspended in PBS (5 ml). The suspension was centrifuged again at 1300 rpm for 5 minutes. The supernatant was removed by suction, and the precipitates were suspended in a medium (10 ml), inoculated in a 10-cm dish and left standing at 37° C. in a 5% CO2 incubator.
(§4) After 3 days, when the cells were proliferated to 80 to 90% of the 10-cm dish, the cells were subcultured in a 15-cm dish.
(§5) The 10-cm dish was taken out from the incubator, and the supernatant was removed by suction. The cells were washed three times with PBS, added with trypsin-EDTA (0.05% trypsin, 0.53 mM EDTA tetrasodium salt, 1 ml) and PBS (1 ml) and left standing in a CO2 incubator for 10 minutes. The dish was taken out from the incubator, and separation of the cells was observed. Then, the cells were transferred to a 15-ml Falcon tube. The cells were added with PBS to a volume of 5 ml and centrifuged at 1300 rpm for 5 minutes, and the supernatant was removed by suction. The precipitates were suspended in PBS (5 ml) and centrifuged at 1300 rpm for 5 minutes, and the supernatant was removed by suction. The precipitates were suspended in a medium (8 ml), and inoculated in a volume of 4 ml each to two of 15-cm dishes, to which the medium (16 ml) was added beforehand, and left standing at 37° C. in a 5% CO2 incubator.
(§6) Two days before the uptake experiment, the cells were inoculated on a 24-well plate ([…] of cell-suspended medium/well, 5 wells/plate per one type of cell). […] For the 4 wells to which the compound of the present invention was added, the cells were separated with 0.2 N NaOH and subjected to measurement of radioactivity. For the remaining 1 well, trypsin-EDTA was added to separate the cells, and the number of cells was counted by using a blood cell counter. Percent doses, which were converted to values for 100,000 cells based on the number of cells and radioactivity, and ratios relative to the normal cells (NIH3T3) were calculated. […]

[2] = system: SHIN-III (human ovary cancer cell); experiment: Uptake experiment in tumor cells (SHIN-III); type: cell-based; settings: for uptake, percent dose converted to 100,000 cells: SHIN-III, 0.5 μCi, mean ± S.D.
Experimental: as §1, §2, §3, §4, §5, §6

U87MG (glioma) = experiment: Uptake experiment in tumor cells (U87MG); type: cell-based; settings: for uptake, percent dose converted to 100,000 cells: U87MG, 0.5 μCi, mean ± S.D.
Experimental: as §1, §2, §3, §4, §5, §6

[3] = system: NIH3T3 (fibroblast, control); experiment: Uptake experiment in normal control cells (NIH3T3); type: cell-based; settings: 0.5 μCi, mean ± S.D.
Experimental: (ii) NIH3T3 (Fibroblast, Control)
as §2, with “DMEM medium (Nissui)” for “medium, RPMI1640 (Nissui, 5.1 g),”
as §3
After 1 week, when the cells were proliferated to 80 to 90% of the 10-cm dish, the cells were subcultured in a 15-cm dish.
The 10-cm dish was taken out from the incubator, and the supernatant was removed by suction. The cells were washed three times with PBS, added with trypsin-EDTA (0.05% trypsin, 0.53 mM EDTA tetrasodium salt, 1 ml) and PBS (1 ml) and left standing in a CO2 incubator for 10 minutes. The dish was taken out from the incubator, and separation of the cells was observed. Then, the cells were transferred to a 15-ml Falcon tube. […]
as §6

[4] = system: SHIN-III human ovary cancer cells (tumor tissue vs muscle tissue); experiment: Distribution experiment in vivo, nude mice transplanted with SHIN-III; settings: 18.5 kBq via caudal vein, 5, 10 and 30 minutes, FIG. 1
Experimental: 1.0×10^6 cells of SHIN-III human ovary cancer cells were subcutaneously inoculated in the femoral region of nude mice (male, 5-week old). […] After 5 minutes, 10 minutes and 30 minutes, the mice were sacrificed, and the weight and radioactivity of each organ were measured.

For `CCn1c(=O)/c(=C2\Sc3ccccc3N2Cc2ccc([125I])cc2)s/c1=C\c1cccc[n+]1CC` [the compound of the present invention], the “uptake, percent dose converted to 100,000 cells” value (shortened to “uptake, percent dose converted”) ([1]; LS180, after 30 minutes) was 3.37 ± 0.31 % dose/100000 cells, the “uptake, percent dose converted” value ([1]; LS180, after 1 hour) was 5.33 ± 0.43 % dose/100000 cells and the “uptake, percent dose converted” value ([1]; LS180, after 3 hours) was 10.2 ± 0.97 % dose/100000 cells. The “uptake ratio relative to the normal cells (NIH3T3)” value ([1]; LS180 vs NIH3T3) was “about three”, the “uptake ratio relative to the normal cells (NIH3T3)” value ([2]; SHIN-III vs NIH3T3) was “about seven” and the “uptake, percent dose converted” value ([2]; after 30 minutes) was 6.26 ± 0.73 % dose/100000 cells. For the same compound, the “uptake, percent dose converted” value ([2]; after 1 hour) was 11.7 ± 1.16 % dose/100000 cells, the “uptake, percent dose converted” value ([2]; after 3 hours) was 25.2 ± 2.42 % dose/100000 cells and the “uptake ratio relative to the normal cells (NIH3T3)” value (U87MG (glioma); U87MG vs NIH3T3) was “about 7 times”. For the same compound, the “uptake, percent dose converted” value (U87MG (glioma); after 30 minutes) was 3.19 ± 1.86 % dose/100000 cells, the “uptake, percent dose converted” value (U87MG (glioma); after 1 hour) was 3.07 ± 0.09 % dose/100000 cells and the “uptake, percent dose converted” value (U87MG (glioma); after 3 hours) was 5.32 ± 0.70 % dose/100000 cells. For the same compound, the “uptake, percent dose converted” value ([3]; after 30 minutes) was 1.40 ± 0.03 % dose/100000 cells, the “uptake, percent dose converted” value ([3]; after 1 hour) was 2.12 ± 0.14 % dose/100000 cells and the “uptake, percent dose converted” value ([3]; after 3 hours) was 3.34 ± 0.18 % dose/100000 cells. For the same compound, the “accumulation in the tumor tissue and muscle tissue” value [4] was “accumulate in a higher concentration in the tumor tissue than in the muscle”.
